The values that follow come from a melting point compilation (Tetko et al.; mined from patent text by program, amines drawn as free bases though some values may be those of a salt).

`Cc1c(C)c2c(c(C)c1N)CC(C)(CN1CCC(Cc3ccccc3)CC1)O2` (stereo not drawn) had a melting point of 71 to 73 °C.

Regarding `CN(C(=O)c1cccc(C=O)c1)c1cccc(F)c1`, the melting point fell in the range of 115 to 119 °C. Then `CC(NC(=O)OCc1ccccc1)P(C)(=O)O` (stereo not drawn), with 118 to 119 °C; and `COC(=O)c1ccc(OC2=C3N=C4CCCCC4=C3C(Cc3ccc(OC)cc3)C=C2)o1` (stereo not drawn), with 79 to 80 °C. For `CC(=O)OC1CSC(Sc2ccc(-c3ccc(C#N)cc3)cc2)C(OC(C)=O)C1OC(C)=O` (stereo not drawn), the melting point amounted to 150 °C. Then `CN(C)C(=O)COC(=O)COc1ccc(C(=O)Nc2ccccc2Sc2ccccc2-c2nnn[nH]2)cc1`, with 205 to 206 °C; and `CC1(C)OCc2cc(C(O)CNCCCCCCOCCCCc3ccccc3)ccc2O1` (stereo not drawn), with 68 to 70 °C.

On to `CCOc1cncc(I)n1`, for which the melting point fell in the range of 36 to 37 °C. Then `ClC[Si](c1ccc(Cl)cc1)(c1ccc(Cl)cc1)c1ccc(Cl)cc1`, with 89 to 93 °C; and `CCOc1ccc(C(=O)N2CCc3cc(S(=O)(=O)N4CC(c5ccccc5)NC4=O)ccc32)cc1` (stereo not drawn), with 216 to 218 °C; and `O=C(Nc1cc(F)cc(F)c1)c1cc(Br)ccc1O`, with 259 to 261 °C. The value for `N#Cc1c(N2CCN(C(=O)c3ccco3)CC2)c2cc(F)cnc2n(Cc2ccccc2)c1=O` was 216 °C; that for `CCOc1cnc(C2=NC(=O)C(C)(C(C)C)N2)c(C(=O)O)c1` (stereo not drawn) was 140 to 144 °C; that for `O=C(Cc1ccccc1)Nc1cc(C(=O)O)cc(C(=O)O)c1` was over 300 °C. Then `Cc1cc(C)c2c(c1)C=C(/C=C/C=O)CO2`, with 76 to 78 °C; and `CCC=C1C([N+](=O)[O-])C2SCCCN2C(=O)N1C` (stereo not drawn), with 155 to 156 °C; and `N#CC(C#N)(CC=C(Cl)Cl)Cc1ccc(Cl)cc1`, with 67.5 °C.

`COc1cc(CC(=O)O)ccc1OCCCc1cn(-c2ccc(C(F)(F)F)cn2)nc1C(C)C` came in with a melting point of 134 to 135 °C. The value for `O=C(O)[C@H](Cc1cccc(OCC(F)(F)F)c1)[C@@H](O)c1ccc(F)cc1` (racemic) was 142 to 143 °C; that for `CCON=C(CC)C1=C(O)CC(c2ccc3c(c2)OCC(=O)N3)CC1=O` (stereo not drawn) was 160 to 162 °C; that for `O=C(NC(=O)c1c(Cl)cccc1Cl)Nc1noc2ccccc12` was 212 to 215 °C.

`Cc1cccc(NC(=O)NCC(=O)N(CC(=O)OCC2CC2)c2ccccc2)c1`: the melting point was 158 °C.

In turn, `CCC1(COc2ccc(C=CC(=O)O)cc2)COC1` displayed a melting point of 128 °C. For the molecule `O=C(NC(Cc1ccccc1)C(=O)O)c1ccccc1` (stereo not drawn), the melting point was 183 to 184 °C.

`COc1nc2cnccc2nc1NS(=O)(=O)c1cccc(Cl)c1Cl` came in with a melting point of 256 to 257 °C.

`c1cc(CN2CCCCC2)cc(OCCCNc2ccnc3ccccc23)c1` gave a melting point of 127 to 128 °C. The value for `CC(SC(=O)c1ccccc1)C(=O)N(CC(=O)O)C1CC1` (stereo not drawn) was 140 to 143 °C. Then `O=C(O)c1ccc(-c2c3ccccc3nn2Cc2ccccc2)cc1`, with 159 to 163 °C.

The molecule `O=C(CCNc1c(C(=O)O)[nH]c2cc(Cl)cc(Cl)c12)c1ccccc1Cc1ccccc1` yielded a melting point of 280 to 283 °C. Then `CS(=O)c1cncc(-c2nc(=O)c3ccccc3s2)n1` (stereo not drawn), with 228 to 230 °C; and `Cc1oc(-c2ccccc2)nc1COc1ccc([N+](=O)[O-])cc1F`, with 155 to 156 °C; and `CN1CC[C@@H]2CC(=O)c3cccc(F)c3[C@@H]2C1` (relative stereo), with over 220 °C.

In turn, `O=C(O)C1(S(=O)(=O)c2ccc(OCC#CCN3CCOCC3)cc2)CCN(Cc2ccc(Br)cc2)CC1` yielded a melting point of 198 °C. The value for `O=C(O)Cc1c(Oc2ccccc2)cccc1Oc1ccccc1` was 32 to 38 °C; that for `Cc1nc(NC(=O)C2=C(O)c3ccc4ccccc4c3S(=O)(=O)N2)sc1C` was 253 °C. Then `Cc1cc(-c2cc(C(F)(F)F)n3ncc(C#N)c3n2)ccc1Cl`, with 216 °C; and `Cc1cc(N)nc(/C=C/c2nc3cc(Br)cnc3[nH]2)c1`, with 280 °C. With `CCC(CC)(CC(=O)Nc1cccc(SCc2ccc3cccc(F)c3n2)c1)C(=O)O`, the melting point was 80 to 83 °C. The value for `COC(=O)C1(C(=O)OC)CN(C(=O)OC(C)(C)C)c2cc([N+](=O)[O-])ccc21` was 132 °C; that for `O=CN1CCC(c2nn(-c3ccc(F)cc3)c3ccccc23)CC1` was 128 to 130 °C; that for `CCOC(=O)c1oc(SC)c2c1CCc1sc(-c3ccccc3)nc1-2` was 170 to 171 °C. Then `C#CCN(C)c1nccc(Oc2ccc(NC(=O)c3cc(F)cc(N4CCCCC4)c3)c3ccccc23)n1`, with 116 to 117 °C; and `CC1=C(C(=O)OC(C)C)C(c2cccc([N+](=O)[O-])c2)N(C(=O)NOCc2ccccc2)C(=O)N1` (stereo not drawn), with 166 to 167 °C. Then `CCCCn1c(=O)c(C(=O)Nc2ccncc2)c(O)c2sccc21`, with 212 to 216 °C; and `O=C(Nc1ccc(C2CN(C(=O)OCc3ccccc3)C2)c(F)c1)OCc1ccccc1`, with 95 °C; and `COc1ccc(OCCOS(N)(=O)=O)cc1`, with 84 to 87 °C. `N#CN1CCC(Oc2c(F)c(F)c(F)c(F)c2F)(c2ccccc2)CC1` yielded a melting point of 117 to 120 °C. The value for `COc1ccc(S(=O)(=O)N2Cc3ccccc3N(C(=O)c3ccc(OC)cc3OC)CC2C(=O)NO)cc1` (stereo not drawn) was 189 to 191 °C. Take `COc1ccccc1-c1cc(=O)cc(N2CCOCC2)o1`: the melting point lay in the range of 125 to 127 °C. The value for `C/C(Cl)=C\C(=O)Nc1ccc(C)cc1` was 108 to 109 °C; that for `O=C(O)c1cc(C(F)(F)F)cc(Cl)c1-n1cnc(C(F)(F)C(F)(F)F)cc1=O` was 189 to 190 °C. Then `O=C(Nc1cccc2c(CCO)c(Br)cnc12)c1c(Cl)cccc1Cl`, with 199 to 200 °C; and `Cc1c(-c2ccc(O)cc2)oc2ccccc2c1=O`, with 241 to 242 °C. In turn, `O=C(O)CSc1nc(-c2ccc(Cl)cc2)no1` came in with a melting point of 112 to 114 °C.

With `Nc1cccc(-c2nc3n(n2)Cc2ccccc2-3)c1`, the melting point lay in the range of 163 to 164 °C. The value for `CCC(C)(C)OC(=O)OOC1CC(C)(C)N(C(C)=O)C(C)(C)C1` was 70 to 73 °C. Then `CC(=O)COc1ccc(-c2ccc(=O)n(Cc3ccc(Cl)cc3F)c2)cc1`, with 127 °C; and `CC(C)(C)c1ccc(-c2sc(N)c(C(=O)c3ccc(Cl)cc3)c2CN(C2CCCCC2)C2CCCCC2)cc1`, with 180 to 184 °C; and `CS(=O)(=O)c1ccc(N)c([N+](=O)[O-])c1`, with 195 to 198 °C.

In turn, `Cn1nc(-c2cc(F)c([N+](=O)[O-])cc2F)cc1C(F)(F)F` gave a melting point of 80 to 81 °C. Regarding `CC1CN(C(=O)Cl)NC1=O` (stereo not drawn), the melting point came to 145 °C. Then `COC(=O)c1cc(N(C)C(C)=O)c(Cl)c(N(C)C(C)=O)c1`, with 162 to 164 °C; and `COc1cc2c(cc1OC)CC(=O)N(Cc1ccccc1)CC2`, with 141 to 142 °C.

Broadly, the melting point is the temperature of the solid-liquid transition.
